Measurements reported in PubChem BioAssay AID1896 (NMMLSC, 2009).
The source made the active and inactive calls. How the calls were made is not given here.

Target: Mitogen-activated protein kinase kinase kinase 3 (Homo sapiens) (UniProt Q99759)
Experiment: MEKK3 PB1-MEK5 interaction blockers – biochemical, bead multiplex flow cytometry, wildtype, dose response (AID 1896)
Conditions: bead-based multiplex flow cytometry, MEK5-MEKK3 PB1 binding; for Ki: measured here: Ki from EC50

Chain of Mitogen-activated protein kinase kinase kinase 3 (Homo sapiens) (Q99759 whole entry, looked up): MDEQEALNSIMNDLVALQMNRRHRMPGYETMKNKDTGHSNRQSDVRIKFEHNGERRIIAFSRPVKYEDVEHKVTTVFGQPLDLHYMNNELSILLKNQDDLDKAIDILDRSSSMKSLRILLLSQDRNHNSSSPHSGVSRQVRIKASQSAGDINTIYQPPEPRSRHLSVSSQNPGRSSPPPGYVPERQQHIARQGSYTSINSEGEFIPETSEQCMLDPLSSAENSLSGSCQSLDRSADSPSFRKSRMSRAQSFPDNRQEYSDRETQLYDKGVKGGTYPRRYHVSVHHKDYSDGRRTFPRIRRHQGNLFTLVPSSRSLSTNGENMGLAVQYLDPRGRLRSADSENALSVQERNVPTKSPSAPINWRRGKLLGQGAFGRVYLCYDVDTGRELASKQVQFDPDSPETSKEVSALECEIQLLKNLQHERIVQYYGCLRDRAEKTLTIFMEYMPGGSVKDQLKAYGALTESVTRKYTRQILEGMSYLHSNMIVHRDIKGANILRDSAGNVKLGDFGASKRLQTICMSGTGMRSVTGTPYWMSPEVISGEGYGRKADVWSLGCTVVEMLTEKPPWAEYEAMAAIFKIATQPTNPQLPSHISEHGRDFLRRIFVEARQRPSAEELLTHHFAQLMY

Compound	EC50	Ki [µM]
COc1ccc(C(CCNCc2ccc(OC(C)C)cc2)c2ccccc2OC)cc1 (stereo not drawn)	> 30 µM (inactive)	
C#CCOCCOCCOCCNc1nc(N2CCN(C(=O)[C@H]([C@@H](C)CC)n3cc([C@@H](N)Cc4ccc(O)cc4)nn3)CC2)nc(N2CCN(C(=O)[C@H](CCCCN)n3cc([C@@H](N)CC(C)C)nn3)CC2)n1	> 30 µM (inactive)	
CCN(CC)CCNC(=O)c1ccc(NC(=O)c2cn(-c3ccccc3)nc2-c2cccs2)cc1	> 30 µM (inactive)	
Cc1ccc(-c2csc(NC(=O)C[n+]3cc(-c4ccc(C)cc4)n4c3CCC4)n2)cc1	> 30 µM (inactive)	
CCN1CCN(Cc2ccc(NC(=O)c3cc(NC(=O)c4cnn(-c5ccccc5)c4N)cc(OC)c3)cc2C(F)(F)F)CC1	> 30 µM (inactive)	
NC(N)=N/N=C/c1ccc(OCc2ccc(Cl)cc2Cl)cc1	> 30 µM (inactive)	
CCN1/C(=C/c2ccc3cc(C)ccc3[n+]2C)Sc2ccc3sccc3c21	> 30 µM (inactive)	
CCN(CC)CCOC(=O)c1ccc(N/C=C(/C#N)c2nc(-c3cc4ccccc4oc3=O)cs2)cc1	3.81 µM	3.26
S=C(Nc1cccc(Cl)c1)N(CCCN1CCCC1)Cc1cccn1Cc1ccc(Cl)cc1	> 30 µM (inactive)	
CCN1/C(=C/c2ccc3cc(C)cc(C)c3[n+]2CC)Sc2cc(C)ccc21	10.6 µM	9.04
Cc1ccccc1OCC(O)CNC1CCC(NCC(O)COc2ccccc2C)CC1 (stereo not drawn)	> 30 µM (inactive)	
COCCNC(=O)CN(c1cc(Cl)ccc1OC)S(=O)(=O)c1ccc(C)c([N+](=O)[O-])c1	> 30 µM (inactive)	
CCOc1cccc2sc(N(CCCN(C)C)C(=O)c3ccc(S(=O)(=O)N4CCc5ccccc5C4)cc3)nc12	> 30 µM (inactive)	
CCN1/C(=C\c2ccc3cc(C)ccc3[n+]2CC)Sc2cc(C)c(C)cc21	9.27 µM	7.93
CN(C)CCNc1ncnc2c1sc1nc(-c3ccccc3)c3c(c12)CCCC3	> 30 µM (inactive)	
COc1cc(CNCCc2c[nH]c3ccccc23)ccc1OCc1ccccc1F	> 30 µM (inactive)	
CCN(Cc1ccccc1)S(=O)(=O)c1ccc(C(=O)N(CCCN(C)C)c2nc3ccc(F)cc3s2)cc1	> 30 µM (inactive)	
O=[N+]([O-])c1ccc(/C=C/C2=NN(c3ccccc3)C(c3ccco3)C2)o1 (stereo not drawn)	> 30 µM (inactive)	
CCCCCCCCCCCCCCCC[n+]1ccc(/C=N/O)cc1	> 30 µM (inactive)	
CCCCn1c(O)c(/C=C/C=C/C=Nc2ccccc2)sc1=S	1.29 µM	1.1
N#CC(C#N)=c1ccc2c(c1)N1C(c3ccccc3)=CC(c3ccccc3)C3CCCCC31N=2 (stereo not drawn)	1.63 µM	1.4
COc1ccccc1N1CCN(S(=O)(=O)c2ccc(Cl)s2)CC1	> 30 µM (inactive)	

Compound	EC50	Ki [µM]
CCCCCCCCCC[N+](C)(C)CC/C=C1/c2ccccc2Sc2ccc(Cl)cc21	> 30 µM (inactive)	
C#CCOCCOCCOCCNc1nc(N2CCN(C(=O)[C@H](Cc3ccc(O)cc3)n3cc([C@@H](N)CC(C)C)nn3)CC2)nc(N2CCN(C(=O)[C@H](Cc3ccc(O)cc3)n3cc([C@@H](N)CC(C)C)nn3)CC2)n1	> 30 µM (inactive)	
COc1ccc(Cn2c(SCc3ccc(C)cc3)nc3cc(OC)c(OC)cc3c2=N)cc1Cl	> 30 µM (inactive)	
CC[n+]1c(/C=C/C=C/N(C(C)=O)c2ccccc2)sc2ccccc21	> 30 µM (inactive)	
Cc1ccc(-n2cc(CNCCCn3ccnc3C)c(-c3ccc(F)cc3)n2)cc1	> 30 µM (inactive)	
NC(=NCCCCCCN=C(N)/N=C(\N)Nc1ccc(Cl)cc1)/N=C(\N)Nc1ccc(Cl)cc1	> 30 µM (inactive)	
C#CCOCCOCCOCCNc1nc(N2CCN(C(=O)[C@H](Cc3ccc(O)cc3)n3cc([C@@H](N)C(C)CC)nn3)CC2)nc(N2CCN(C(=O)[C@H](Cc3cc4ccccc4[nH]3)n3cc([C@@H](N)Cc4ccc(O)cc4)nn3)CC2)n1 (stereo partly drawn)	> 30 µM (inactive)	
CCCOc1ccc2c(c1)C(=NN=C(N)N)c1cc(OCCC)ccc1-2	> 30 µM (inactive)	
NC(=O)CSc1nnc(Cc2ccc3c(c2)OCO3)o1	> 30 µM (inactive)	
Nc1ccc(Nc2ccccc2N)cc1	21.1 µM	18.1
CCc1ccc(Nc2n[n+](-c3ccccc3)c(-c3ccc(OCc4ccccc4)cc3)s2)cc1	> 30 µM (inactive)	
C#CCOCCOCCOCCNc1nc(N2CCN(C(=O)[C@H]([C@@H](C)CC)n3cc([C@@H](N)CO)nn3)CC2)nc(N2CCN(C(=O)[C@H](Cc3cc4ccccc4[nH]3)n3cc([C@@H](N)C(C)CC)nn3)CC2)n1 (stereo partly drawn)	> 30 µM (inactive)	
Brc1ccc(N=C/C=C/C=C/Nc2ccc(Br)cc2)cc1	10.6 µM	9.04
CCN(CC)CCOC(=O)c1ccc(N/C=C(/C#N)c2nc(-c3cccc(OC)c3)cs2)cc1	> 30 µM (inactive)	
COc1ccc2nc(C)cc(N/N=C/c3cccc(OC)c3O)c2c1	> 30 µM (inactive)	
CN1C(=O)/C(=C\c2ccc(-c3ccccc3)o2)SC1=S	10.2 µM	8.75
Cc1cc2ccccc2n1CCNC(=O)c1ccc(Br)o1	11.9 µM	10.1
CC(=O)c1c(C)[nH]c(C(=O)NC2=NCCS2)c1C	> 30 µM (inactive)	
CCCCCc1cc(=O)oc2c(C(CCN3CCCC3)c3ccc(N(C)C)cc3)c(OC)cc(OC)c12 (stereo not drawn)	> 30 µM (inactive)	
C#CCOCCOCCOCCNc1nc(N2CCN(C(=O)[C@H](Cc3cc4ccccc4[nH]3)n3cc([C@@H](N)C(C)CC)nn3)CC2)nc(N2CCN(C(=O)[C@H](Cc3cc4ccccc4[nH]3)n3cc([C@@H](N)CC(C)C)nn3)CC2)n1 (stereo partly drawn)	> 30 µM (inactive)	
NC(N)=N/N=C/c1ccc(OCc2ccccc2Cl)cc1	> 30 µM (inactive)	
C/C(=N\NC(=O)c1cc(O)cc(O)c1)c1ccc(NC(=O)Cc2ccccc2)cc1	> 30 µM (inactive)	
